# Measured values reported in US8895585B2, “Nicotinamide derivative or salt thereof” (FUJIFILM Corporation, priority 2010, dated 2014).
# Molecular target: T1, glutathione S-transferase (GST)-fused full-length human Syk protein (Homo sapiens, UniProt P43405)
# T1 construct: (GST)-fused full-length human Syk protein; GST (glutathione S-transferase); purchased Carna Biosciences
# Assay: Syk enzyme assay
# Format: biochemical
# Conditions: Syk enzyme assay, Test Example 1; read-out: IC50 of Syk-inhibitory activity
# In short: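 IC50 values come from a time-resolved FRET readout (615 and 665 nm) of substrate phosphorylation, measured after an EDTA stop and 1 h antibody binding. The kinase reaction ran 40 min at room temperature with 27 μM ATP and 0.4 μM biotin-peptide, following a 15 min compound preincubation with baculovirus-made GST-full-length human Syk.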
row,Compound,IC50 [nM]
1,"NC(=O)c1cc(F)c(N[C@@H]2CCCC[C@@H]2N)nc1Nc1cncc(NC(=O)c2ccc(S(=O)(=O)F)cc2)c1 (relative stereo) [Example 027-017, 4-((5-(6-(cis-2-aminocyclohexylamino)-3-carbamoyl-5-fluoropyridin-2-yl)aminopyridin-3-yl)carbamoyl)benzene-1-sulfonyl fluoride]",10 to 50
2,"NC(=O)c1cc(F)c(N[C@@H]2CCCC[C@@H]2N)nc1Nc1cncc(NC(=O)c2ccno2)c1 (relative stereo) [Example 027-036, N-(5-(6-(cis-2-aminocyclohexylamino)-3-carbamoyl-5-fluoropyridin-2-yl)aminopyridin-3-yl)isoxazole-5-carboxamide]",< 10
3,"Cn1nnc2cc(C(=O)Nc3cncc(Nc4nc(N[C@@H]5CCCC[C@@H]5N)c(F)cc4C(N)=O)c3)ccc21 (relative stereo) [Example 027-042, N-(5-(6-(cis-2-aminocyclohexylamino)-3-carbamoyl-5-fluoropyridin-2-yl)aminopyridin-3-yl)-1-methyl-1H-benzo[d][1,2,3]triazol-5-carboxamide]",< 10
4,"NC(=O)c1cc(F)c(N[C@@H]2CCCC[C@@H]2N)nc1Nc1ccc2[nH]c(C(=O)N3CCOCC3)cc2c1 (relative stereo) [Example 029-017, 6-(cis-2-aminocyclohexylamino)-5-fluoro-2-((2-(morpholine-4-carbonyl)-1H-indol-5-yl)amino)nicotinamide]",< 10
5,"NC(=O)c1cc(F)c(N[C@@H]2CCCC[C@@H]2N)nc1Nc1ccc2[nH]c(C(=O)NCc3ccccc3)cc2c1 (relative stereo) [Example 029-018, 5-((6-(cis-2-aminocyclohexylamino)-3-carbamoyl-5-fluoropyridin-2-yl)amino)-N-benzyl-1H-indole-2-carboxamide]",< 10
6,"NC(=O)c1cc(F)c(N[C@@H]2CCCC[C@@H]2N)nc1Nc1ccc2[nH]c(C(=O)NCCN3CCOCC3)cc2c1 (relative stereo) [Example 029-019, 5-((6-(cis-2-aminocyclohexylamino)-3-carbamoyl-5-fluoropyridin-2-yl)amino)-N-(2-morpholinoethyl)-1H-indole-2-carboxamide]",< 10
7,"CS(=O)(=O)Nc1cccc2cc(Nc3nc(N[C@@H]4CCCC[C@@H]4N)c(F)cc3C(N)=O)cnc12 (relative stereo) [Example 41-2, 6-(cis-2-aminocyclohexylamino)-5-fluoro-2-((8-(methylsulphonamide)quinolin-3-yl)amino)nicotinamide]",< 10
8,"NC(=O)c1cc(F)c(N[C@@H]2CCCC[C@@H]2N)nc1Nc1cnc2c(NS(=O)(=O)CCl)cccc2c1 (relative stereo) [Example 41-3, 6-(cis-2-aminocyclohexylamino)-2-((8-(2-chloromethylsulphonamide)quinolin-3-yl)amino)-5-fluoronicotinamide]",10 to 50
9,"COc1ccc(S(=O)(=O)Nc2cccc3cc(Nc4nc(N[C@@H]5CCCC[C@@H]5N)c(F)cc4C(N)=O)cnc23)cc1 (relative stereo) [Example 41-5, 6-(cis-2-aminocyclohexylamino)-5-fluoro-2-((8-(4-methoxyphenylsulphonamide)quinolin-3-yl)amino)nicotinamide]",50 to 100
10,"NC(=O)c1cc(F)c(N[C@@H]2CCCC[C@@H]2N)nc1Nc1cnc2c(NS(=O)(=O)c3ccc(Cl)cc3)cccc2c1 (relative stereo) [Example 41-6, 6-(cis-2-aminocyclohexylamino)-2-((8-(4-chlorophenylsulphonamide)quinolin-3-yl)amino)-5-fluoronicotinamide]",50 to 100
11,"NC(=O)c1cc(F)c(N[C@@H]2CCCC[C@@H]2N)nc1Nc1cnc2c(NS(=O)(=O)c3cccnc3)cccc2c1 (relative stereo) [Example 41-8, 6-(cis-2-aminocyclohexylamino)-5-fluoro-2-((8-(pyridin-3-sulphonamide)quinolin-3-yl)amino)nicotinamide]",10 to 50
12,"NC(=O)c1cc(F)c(N[C@@H]2CCCC[C@@H]2N)nc1Nc1cnc2c(NC(=O)c3ccccn3)cccc2c1 (relative stereo) [Example 41-10, 6-(cis-2-aminocyclohexylamino)-5-fluoro-2-((8-picolinamidequinolin-3-yl)amino)nicotinamide]",< 10
13,"CC(C)(C)C(=O)Nc1cccc2cc(Nc3nc(N[C@@H]4CCCC[C@@H]4N)c(F)cc3C(N)=O)cnc12 (relative stereo) [Example 41-11, 6-(cis-2-aminocyclohexylamino)-5-fluoro-2-((8-pivalamidequinolin-3-yl)amino)nicotinamide]",< 10
14,NC(=O)c1cc(F)c(N[C@@H]2CCCC[C@@H]2N)nc1Nc1cc(O)c2ncccc2c1 (relative stereo) [Example 042-000],< 10
15,COc1cccc(Nc2nc(NC3CCCCC3N)c(F)cc2C(N)=O)c1 (stereo not drawn) [Example 002-006],< 10
16,CN1CCN(c2ccc(Nc3nc(NC4CCCCC4N)c(F)cc3C(N)=O)cn2)CC1 (stereo not drawn) [Example 002-021],10 to 50
17,Cc1cc(Nc2nc(NC3CCCCC3N)c(F)cc2C(N)=O)cc(C)n1 (stereo not drawn) [Example 002-022],10 to 50
18,Cc1ncc(Nc2nc(NC3CCCCC3N)c(F)cc2C(N)=O)cc1-c1ccccc1 (stereo not drawn) [Example 002-023],< 10
19,NC(=O)c1cc(F)c(NC2CCCCC2N)nc1Nc1cccc2c1cnn2CCN1CCCC1 (stereo not drawn) [Example 002-026],< 10
20,NC(=O)c1cc(F)c(NC2CCCCC2N)nc1Nc1cccc2c1cnn2CCN1CCOCC1 (stereo not drawn) [Example 002-027],< 10
21,NC(=O)c1cc(F)c(NC2CCCCC2N)nc1Nc1cccc2c1cnn2CC1CC1 (stereo not drawn) [Example 002-028],< 10
22,NC(=O)c1cc(F)c(NC2CCCCC2N)nc1Nc1cccc2c1cnn2Cc1ccccc1 (stereo not drawn) [Example 002-029],10 to 50

row,Compound,IC50 [nM]
1,CCOCCOCCn1ncc2c(Nc3nc(NC4CCCCC4N)c(F)cc3C(N)=O)cccc21 (stereo not drawn) [Example 002-031],< 10
2,NC(=O)c1cc(F)c(NC2CCCCC2N)nc1Nc1cccc2nn(Cc3ccccc3)cc12 (stereo not drawn) [Example 002-033],< 10
3,COCCn1cc2c(Nc3nc(NC4CCCCC4N)c(F)cc3C(N)=O)cccc2n1 (stereo not drawn) [Example 002-034],< 10
4,CCOCCOCCn1cc2c(Nc3nc(NC4CCCCC4N)c(F)cc3C(N)=O)cccc2n1 (stereo not drawn) [Example 002-035],10 to 50
5,NC(=O)c1cc(F)c(NC2CCCCC2N)nc1Nc1ccc2c(cnn2Cc2ccccc2)c1 (stereo not drawn) [Example 002-036],50 to 100
6,CC(C)c1cncc(Nc2nc(NC3CCCCC3N)c(F)cc2C(N)=O)c1 (stereo not drawn) [Example 002-039],10 to 50
7,Cc1ncc(Nc2nc(NC3CCCCC3N)c(F)cc2C(N)=O)cc1N1CCCC1 (stereo not drawn) [Example 002-040],10 to 50
8,COCCn1cc2ccc(Nc3nc(NC4CCCCC4N)c(F)cc3C(N)=O)cc2n1 (stereo not drawn) [Example 002-044],10 to 50
9,CCOCCOCCn1cc2ccc(Nc3nc(NC4CCCCC4N)c(F)cc3C(N)=O)cc2n1 (stereo not drawn) [Example 002-045],10 to 50
10,NC(=O)c1cc(F)c(NC2CCCCC2N)nc1Nc1ccc2cnn(CC3CC3)c2c1 (stereo not drawn) [Example 002-046],< 10
11,NC(=O)c1cc(F)c(NC2CCCCC2N)nc1Nc1ccc2cnn(Cc3ccccc3)c2c1 (stereo not drawn) [Example 002-047],10 to 50
12,CCOCCOCCn1ncc2ccc(Nc3nc(NC4CCCCC4N)c(F)cc3C(N)=O)cc21 (stereo not drawn) [Example 002-049],10 to 50
13,NC(=O)c1cc(F)c(NC2CCCCC2N)nc1Nc1ccnc(C(F)(F)F)c1 (stereo not drawn) [Example 002-050],10 to 50
14,NC(=O)c1cc(F)c(NC2CCCCC2N)nc1Nc1ccnc(-c2ccc[nH]2)c1 (stereo not drawn) [Example 002-051],< 10
15,NC(=O)c1cc(F)c(NC2CCCCC2N)nc1Nc1ccnc(-c2ccccc2)c1 (stereo not drawn) [Example 002-052],< 10
16,CCOc1cc(Nc2nc(NC3CCCCC3N)c(F)cc2C(N)=O)cc(OCC)n1 (stereo not drawn) [Example 002-061],< 10
17,Cc1ccc(-c2cncc(Nc3nc(NC4CCCCC4N)c(F)cc3C(N)=O)c2)o1 (stereo not drawn) [Example 002-062],< 10
18,Cc1ccc(-c2cc(Nc3nc(NC4CCCCC4N)c(F)cc3C(N)=O)ccn2)o1 (stereo not drawn) [Example 002-063],< 10
19,NC(=O)c1cc(F)c(NC2CCCCC2N)nc1Nc1cccn2ccnc12 (stereo not drawn) [Example 002-064],100 to 1000
20,NC(=O)c1cc(F)c(NC2CCCCC2N)nc1Nc1cncc(-c2cn[nH]c2)c1 (stereo not drawn) [Example 002-069],< 10
21,NC(=O)c1cc(F)c(NC2CCCCC2N)nc1Nc1ccnc(-c2cn[nH]c2)c1 (stereo not drawn) [Example 002-070],< 10

# Same assay, conditions: read-out: Syk-inhibitory activity (IC50)
row,Compound,IC50 [nM]
1,"NC(=O)c1cc(F)c(N[C@@H]2CCCC[C@@H]2N)nc1Nc1cncc(NC(=O)c2ccccc2)c1 (relative stereo) [Example 26, 6-(cis-2-aminocyclohexylamino)-2-(5-benzoylaminopyridin-3-ylamino)-5-fluoronicotinamide]",≤ 1000
2,"NC(=O)c1cncc(Nc2nc(N[C@@H]3CCCC[C@@H]3N)c(F)cc2C(N)=O)c1 (relative stereo) [Example 28, 2-(5-aminocarbonylpyridin-3-ylamino)-6-(cis-2-aminocyclohexylamino)-5-fluoronicotinamide]",≤ 1000
3,"NC(=O)c1cc(F)c(N[C@@H]2CCCC[C@@H]2N)nc1Nc1cncc(C(=O)O)c1 (relative stereo) [Example 29-1, 5-((3-aminocarbonyl-6-(cis-2-aminocyclohexylamino)-5-fluoropyridin-2-yl)amino)nicotinic acid]",≤ 1000
4,"NC(=O)c1cc(Nc2nc(N[C@@H]3CCCC[C@@H]3N)c(F)cc2C(N)=O)ccn1 (relative stereo) [Example 29-12, 4-((3-aminocarbonyl-6-(cis-2-aminocyclohexylamino)-5-fluoropyridin-2-yl)amino)pyridin-2-carboxamide]",≤ 1000
5,"CNC(=O)c1cc(Nc2nc(N[C@@H]3CCCC[C@@H]3N)c(F)cc2C(N)=O)ccn1 (relative stereo) [Example 29-13, 4-((3-aminocarbonyl-6-(cis-2-aminocyclohexylamino)-5-fluoropyridin-2-yl)amino)-N-methylpyridin-2-carboxamide]",≤ 1000
